These molecules were tested against T1, haematopoietic prostaglandin D synthase (H-PGDS) (Homo sapiens, UniProt O60760) (assay: H-PGDS RapidFire High Throughput Mass Spectrometry Assay). Conditions: H-PGDS RapidFire MS assay, mean pIC50; read-out: Potency Range (mean pIC50) (converted).
T1 construct: Full length human H-PGDS cDNA (Invitrogen Ultimate ORF IOH13026) was amplified by PCR; made in house; host or cells: E. coli BL21 (DE3*), vector pET22b+
Type: biochemical
How it was run: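 PGH2 (~10 μM burst) generated in situ from arachidonic acid by FLAG-tagged human COX-2 (Sf9-expressed), then converted to PGD2 by full-length human His-tagged H-PGDS from E. coli. PGD2 and PGF2α (substrate surrogate) quantified by RapidFire SPE-triple quadrupole MS; percent conversion calculated.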

T1 sequence (O60760 whole entry): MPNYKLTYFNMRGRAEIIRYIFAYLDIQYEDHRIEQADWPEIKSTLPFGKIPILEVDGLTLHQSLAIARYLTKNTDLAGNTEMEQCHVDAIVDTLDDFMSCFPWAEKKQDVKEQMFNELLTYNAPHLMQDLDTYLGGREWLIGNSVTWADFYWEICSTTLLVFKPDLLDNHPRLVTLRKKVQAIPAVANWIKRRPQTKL

Row | Compound | IC50 [nM]
1 | O=C(NC1CCN(CC(F)F)CC1)c1cnc2cc(OC(F)F)c(F)cc2c1 [Example 65, N-(1-(2,2-Difluoroethyl)piperidin-4-yl)-7-(difluoromethoxy)-6-fluoroquinoline-3-carboxamide] | 10 to 79.4
2 | COc1cccc2cc(C(=O)Nc3nccs3)cnc12 [Example 28, 8-Methoxy-N-(thiazol-2-yl)quinoline-3-carboxamide] | 10 to 79.4
3 | C[C@@H]1CCN1c1cc2ncc(C(=O)N[C@H]3CC[C@H](C(C)(C)O)CC3)cc2cc1F [Example 175, 6-Fluoro-N-(trans-4-(2-hydroxypropan-2-yl)cyclohexyl)-7-((R)-2-methylazetidin-1-yl)quinoline-3-carboxamide] | 100 to 1000
4 | O=C(N[C@@H]1CC[C@@H](C(O)C(F)(F)F)OC1)c1cnc2cc(OC(F)F)ccc2c1 (mixture of isomers) [Example 17, Racemic 7-(Difluoromethoxy)-N-((3R,6S)-6-(2,2,2-trifluoro-1-hydroxyethyl)tetrahydro-2H-pyran-3-yl)quinoline-3-carboxamide] | 10 to 79.4
5 | NCCCOC[C@H]1CC[C@H](NC(=O)c2cnc3cc(OC(F)F)ccc3c2)CC1 [Example 23, N-(trans-4-((3-Aminopropoxy)methyl)cyclohexyl)-7-(difluoromethoxy)quinoline-3-carboxamide] | 10 to 79.4
6 | C[C@@H]1CNC(=O)[C@H]1NC(=O)c1cnc2cc(N3CC(F)C3)c(F)cc2c1 [Example 206, 6-Fluoro-7-(3-fluoroazetidin-1-yl)-N-((3S,4R)-4-methyl-2-oxopyrrolidin-3-yl)quinoline-3-carboxamide] | 10 to 79.4
7 | CC(C)(O)[C@H]1CC[C@H](NC(=O)c2cnc3cc(NC4CC4)c(Cl)cc3c2)CC1 [Example 213, 6-Chloro-7-(cyclopropylamino)-N-((trans)-4-(2-hydroxypropan-2-yl)cyclohexyl)quinoline-3-carboxamide] | < 10
8 | C[C@H](N[C@H]1CC[C@H](NC(=O)c2cnc3cc(OC(F)F)c(F)cc3c2)CC1)C(F)(F)F [Example 63, 7-(Difluoromethoxy)-6-fluoro-N-(trans-4-(((S)-1,1,1-trifluoropropan-2-yl)amino)cyclohexyl)quinoline-3-carboxamide] | < 10
9 | COc1cccc2cc(C(=O)N[C@H]3CC[C@H](C(C)(C)O)CC3)cnc12 [Example 189, N-(trans-4-(2-Hydroxypropan-2-yl)cyclohexyl)-8-methoxyquinoline-3-carboxamide] | 100 to 1000
10 | N#C[C@H]1CC[C@H](NC(=O)c2cnc3cc(OC(F)F)c(F)cc3c2)CC1 [Example 87, N-(trans-4-Cyanocyclohexyl)-7-(difluoromethoxy)-6-fluoroquinoline-3-carboxamide] | 10 to 79.4
11 | O=C(N[C@H]1CC[C@H](N2CC(F)C2)CC1)c1cnc2cc(OC(F)F)c(F)cc2c1 [Example 90, 7-(Difluoromethoxy)-6-fluoro-N-(trans-4-(3-fluoroazetidin-1-yl)cyclohexyl)quinoline-3-carboxamide] | 10 to 79.4
12 | C[C@]1(O)C[C@@H](NC(=O)c2cnc3cc(OC(F)F)c(F)cc3c2)C1 [Example 93, 7-(Difluoromethoxy)-6-fluoro-N-((1s,3s)-3-hydroxy-3-methylcyclobutyl)quinoline-3-carboxamide] | 100 to 1000
13 | CC(C)(O)[C@@H]1CC[C@@H](NC(=O)c2cnc3cc(OC(F)F)ccc3c2)CO1 (racemic) [Example 22, Racemic 7-(Difluoromethoxy)-N-((3s,6r)-6-(2-hydroxypropan-2-yl)tetrahydro-2H-pyran-3-yl)quinoline-3-carboxamide] | 10 to 79.4
14 | O=C(NC1CC2(CC(NCC(F)(F)F)C2)C1)c1cnc2cc(OC(F)F)c(F)cc2c1 (racemic) [Example 61, 7-(Difluoromethoxy)-6-fluoro-N-(6-((2,22-trifluoroethyl)amino)spiro[3.3]heptan-2-yl)quinoline-3-carboxamide] | 10 to 79.4
15 | C[C@@H](N[C@H]1CC[C@H](NC(=O)c2cnc3cc(OC(F)F)c(F)cc3c2)CC1)C(F)(F)F [Example 62, 7-(Difluoromethoxy)-6-fluoro-N-(trans-4-(((R)-1,1,1-trifluoropropan-2-yl)amino)cyclohexyl)quinoline-3-carboxamide] | 10 to 79.4
16 | O=C(N[C@H]1CC[C@H](NCC(F)F)CC1)c1cnc2cc(OC(F)F)c(F)cc2c1 [Example 49, N-(trans-4-((2,2-Difluoroethyl)amino)cyclohexyl)-7-(difluoromethoxy)-6-fluoroquinoline-3-carboxamide] | 10 to 79.4
17 | CC(C)(O)[C@H]1CC[C@H](NC(=O)c2cnc3cc(N4CCCC4)c(F)cc3c2)CC1 [Example 163, 6-Fluoro-N-(trans-4-(2-hydroxypropan-2-yl)cyclohexyl)-7-(pyrrolidin-1-yl)quinoline-3-carboxamide] | 100 to 1000
18 | C[C@]1(O)CC[C@H](NC(=O)c2cnc3cc(OC(F)F)c(Cl)cc3c2)CC1 [Example 143, 6-Chloro-7-(difluoromethoxy)-N-((1r,4r)-4-hydroxy-4-methylcyclohexyl)quinoline-3-carboxamide] | < 10
19 | C=Cc1cc2ncc(C(=O)N[C@H]3CC[C@H](C(C)(C)O)CC3)cc2cc1Cl [Example 225, 6-Chloro-N-((trans)-4-(2-hydroxypropan-2-yl)cyclohexyl)-7-vinylquinoline-3-carboxamide] | 10 to 79.4
20 | C[C@]1(O)C[C@@H](NC(=O)c2cnc3cc(C4CCC4)c(Cl)cc3c2)C1 [Example 180, 6-Chloro-7-cyclobutyl-N-((1s,3s)-3-hydroxy-3-methylcyclobutyl)quinoline-3-carboxamide] | 10 to 79.4
21 | O=C(N[C@H]1CC[C@](O)(C(F)F)CC1)c1cnc2cc(OC(F)F)c(Cl)cc2c1 [Example 233, 6-Chloro-7-(difluoromethoxy)-N-((1s,4s)-4-(difluoromethyl)-4-hydroxycyclohexyl)quinoline-3-carboxamide] | 10 to 79.4
22 | CCOC(=O)c1cnc(N2CCC(NC(=O)c3cnc4cc(OC(F)F)c(F)cc4c3)CC2)o1 [Example 72, Ethyl 2-(4-(7-(difluoromethoxy)-6-fluoroquinoline-3-carboxamido)piperidin-1-yl)oxazole-5-carboxylate] | 10 to 79.4
23 | NS(=O)(=O)O[C@H]1CC[C@H](NC(=O)c2cnc3cc(OC(F)F)c(Cl)cc3c2)CC1 [Example 141, trans-4-(6-Chloro-7-(difluoromethoxy)quinoline-3-carboxamido)cyclohexyl sulfamate] | < 10
24 | CC1(F)CN(c2cc3ncc(C(=O)N[C@H]4CC[C@H](C(C)(C)O)CC4)cc3cc2F)C1 [Example 165, 6-Fluoro-7-(3-fluoro-3-methylazetidin-1-yl)-N-(trans-4-(2-hydroxypropan-2-yl)cyclohexyl)quinoline-3-carboxamide] | 10 to 79.4
25 | O=C(N[C@H]1CC[C@@](O)(C(F)(F)F)CC1)c1cnc2cc(OC(F)F)c(Cl)cc2c1 [Example 227, 6-Chloro-7-(difluoromethoxy)-N-((trans)-4-hydroxy-4-(trifluoromethyl)cyclohexyl)quinoline-3-carboxamide] | 10 to 79.4
26 | CC(C)(O)C(=O)N[C@H]1C[C@H](NC(=O)c2cnc3cc(OC(F)F)c(Cl)cc3c2)C1 [Example 226, 6-Chloro-7-(difluoromethoxy)-N-(trans-3-(2-hydroxy-2-methylpropanamido)cyclobutyl)quinoline-3-carboxamide] | 10 to 79.4

Same assay, conditions: in at least one experimental run; read-out: H-PGDS pIC50 value (converted)

Row | Compound | IC50 [nM]
27 | CC1(F)CN(c2cc3ncc(C(=O)N[C@H]4CC[C@H](C(C)(C)O)CC4)cc3cc2F)C1 [Example 165, 6-Fluoro-7-(3-fluoro-3-methylazetidin-1-yl)-N-(trans-4-(2-hydroxypropan-2-yl)cyclohexyl)quinoline-3-carboxamide] | 63.1

Reference: patent publication US20210238162A1, “CHEMICAL COMPOUNDS” (GlaxoSmithKline Intellectual Property Development Limited, priority 2015, published 2021)
